Reference: patent US11780821B2, “Inhibitors of fibroblast activation protein” (Praxis Biotech LLC, priority 2017, dated 2023)

Legend:
[1] = biological target: T1, recombinant mouse FAPα (rmFAPα) (Mus musculus, UniProt P97321); test: FAPα enzymatic exopeptidase (dipeptidase) activity assay; assay type: biochemical; conditions: 1 μM test compound; Z-Gly-Pro-AMC substrate
T1 construct: purchased R&S system (so in the source)
T1 sequence (P97321 1-761): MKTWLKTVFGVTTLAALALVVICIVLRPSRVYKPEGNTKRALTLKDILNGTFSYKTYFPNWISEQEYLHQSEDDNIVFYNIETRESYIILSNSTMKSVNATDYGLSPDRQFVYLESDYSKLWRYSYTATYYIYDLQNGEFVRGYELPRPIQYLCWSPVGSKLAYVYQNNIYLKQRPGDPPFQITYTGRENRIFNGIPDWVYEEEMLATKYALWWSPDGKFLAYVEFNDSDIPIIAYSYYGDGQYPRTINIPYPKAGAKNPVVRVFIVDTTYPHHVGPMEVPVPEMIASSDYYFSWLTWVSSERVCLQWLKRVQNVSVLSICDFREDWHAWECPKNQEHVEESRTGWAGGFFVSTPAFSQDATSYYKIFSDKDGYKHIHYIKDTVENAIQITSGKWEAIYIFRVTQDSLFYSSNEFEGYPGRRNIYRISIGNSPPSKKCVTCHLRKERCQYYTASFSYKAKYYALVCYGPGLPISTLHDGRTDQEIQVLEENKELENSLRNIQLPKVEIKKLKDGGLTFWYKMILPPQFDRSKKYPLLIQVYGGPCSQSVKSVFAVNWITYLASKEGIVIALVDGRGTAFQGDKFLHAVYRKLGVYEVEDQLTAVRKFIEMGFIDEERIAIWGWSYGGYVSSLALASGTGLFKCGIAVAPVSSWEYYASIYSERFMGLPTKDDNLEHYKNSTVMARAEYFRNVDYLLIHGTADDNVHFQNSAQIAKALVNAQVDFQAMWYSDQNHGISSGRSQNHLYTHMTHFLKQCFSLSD
Experimental: FAPα enzymatic exopeptidase (dipeptidase) activity assay. […] 7-Amino-4-Methylcoumarin (AMC) release was detected by measuring fluorescence at Ex/Em 380/460 nm using a Multifunction Microplate Reader (Synergy 4, Biotek). All measurements were carried out in duplicate. […] For the calculations, the average measurements from reactions containing only vehicle and substrate, without enzyme, were used as a blank and were subtracted from the rest of the measurements. Percent inhibition was calculated using the average measurements from reactions containing vehicle, enzyme, and substrate as the maximum of enzymatic activity. Measurements were performed as a single point.

[2] = biological target: T2, recombinant human FAPα (rhFAPα) (Homo sapiens, UniProt Q12884); test: as above; assay type: biochemical; conditions: 1 μM test compound; Z-Gly-Pro-AMC substrate
T2 construct: purchased R&S system (so in the source)
T2 sequence (Q12884 1-760): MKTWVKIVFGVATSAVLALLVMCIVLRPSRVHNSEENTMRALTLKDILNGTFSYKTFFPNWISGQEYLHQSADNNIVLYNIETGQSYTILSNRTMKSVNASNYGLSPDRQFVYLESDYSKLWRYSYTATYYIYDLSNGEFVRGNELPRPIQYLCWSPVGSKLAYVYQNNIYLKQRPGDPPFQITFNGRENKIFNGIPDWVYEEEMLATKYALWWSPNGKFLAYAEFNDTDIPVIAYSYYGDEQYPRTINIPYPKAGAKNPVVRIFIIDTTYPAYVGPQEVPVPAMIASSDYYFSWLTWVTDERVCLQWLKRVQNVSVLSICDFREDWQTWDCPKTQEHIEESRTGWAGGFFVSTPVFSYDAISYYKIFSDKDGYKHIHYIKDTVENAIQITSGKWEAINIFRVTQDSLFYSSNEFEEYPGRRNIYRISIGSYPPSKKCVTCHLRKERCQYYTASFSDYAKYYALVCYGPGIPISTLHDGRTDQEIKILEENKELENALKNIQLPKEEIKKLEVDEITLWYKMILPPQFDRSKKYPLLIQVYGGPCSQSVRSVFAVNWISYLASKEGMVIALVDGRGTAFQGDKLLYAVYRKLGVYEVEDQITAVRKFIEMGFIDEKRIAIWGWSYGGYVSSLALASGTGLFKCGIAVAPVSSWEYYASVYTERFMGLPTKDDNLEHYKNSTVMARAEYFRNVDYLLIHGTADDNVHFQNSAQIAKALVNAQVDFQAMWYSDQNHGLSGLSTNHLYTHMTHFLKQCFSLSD

[3] = biological target: T3, recombinant mouse DPPIV (rmDPPIV) (Mus musculus, UniProt P28843); test: DPPIV enzymatic activity assay; assay type: biochemical; conditions: H-Gly-Pro-pNA substrate
T3 construct: purchased R&S system (so in the source)
T3 sequence (P28843 whole entry): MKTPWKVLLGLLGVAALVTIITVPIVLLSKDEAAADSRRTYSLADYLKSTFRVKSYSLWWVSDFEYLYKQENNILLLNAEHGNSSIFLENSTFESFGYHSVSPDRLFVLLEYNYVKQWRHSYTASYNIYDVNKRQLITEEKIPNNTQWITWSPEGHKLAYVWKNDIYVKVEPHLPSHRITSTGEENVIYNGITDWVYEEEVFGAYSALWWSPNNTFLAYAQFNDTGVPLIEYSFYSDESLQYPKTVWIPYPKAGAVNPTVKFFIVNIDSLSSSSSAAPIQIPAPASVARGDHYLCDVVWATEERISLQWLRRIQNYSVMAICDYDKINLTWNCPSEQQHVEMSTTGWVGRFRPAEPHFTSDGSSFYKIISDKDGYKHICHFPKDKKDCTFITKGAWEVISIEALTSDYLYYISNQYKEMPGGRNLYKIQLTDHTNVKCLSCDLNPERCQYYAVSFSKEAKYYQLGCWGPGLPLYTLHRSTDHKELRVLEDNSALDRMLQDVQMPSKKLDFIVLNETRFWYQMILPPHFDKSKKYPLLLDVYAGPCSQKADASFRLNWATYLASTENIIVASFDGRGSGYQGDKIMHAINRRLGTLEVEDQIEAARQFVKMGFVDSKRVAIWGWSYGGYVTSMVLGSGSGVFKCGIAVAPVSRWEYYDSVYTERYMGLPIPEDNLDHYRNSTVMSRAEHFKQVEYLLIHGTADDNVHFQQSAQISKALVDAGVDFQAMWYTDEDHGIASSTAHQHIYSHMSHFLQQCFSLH

[4] = Intravenous and oral bioavailability in mice; assay type: in vivo
Experimental: The pharmacokinetic properties of exemplary test compounds were assayed after administration of an intravenous (IV) 2 mg/kg or oral (PO) 10 mg/kg single dose in mice. Exemplary test compounds were formulated at 0.4 and 1 mg/ml in a vehicle containing Poly-Ethylene Glycol 200 (PEG200; Cat. No. #P3015, Sigma Aldrich) and distilled water (dH2O) (50/50, v/v) as dosing solutions for intravenous and oral administration, respectively.
C57BL/6j and Balb/c mice, approximately 8-10 weeks old, were obtained from the vivarium Fundación Ciencia & Vida Chile (Santiago, Chile) and maintained in a temperature-controlled room with 12/12 hr light/dark schedule with food and water ad libitum. Animals were acclimated for a minimum period of 4 days upon arrival at the testing facility.
On the day of study, mice were weighed and identified by marking the tail with numbers using a non-toxic permanent marker for designation into the experimental groups (n=3 per group). Each mouse in the IV dosing groups received a systemic bolus of 2 mg/kg dosing solution via the caudal vein.
Non-dosed mice were used to collect samples of zero time points. […] Blood samples were centrifuged immediately at 9,000 g at 4° C. for 5 min and the plasma was separated.
The plasma samples were analyzed by QTRAP 4500 triple quadrupole mass spectrometer (Applied Biosystems SCIEX) in positive or negative ion mode depending on the tested compound and interfaced with an ekspert ultraLC 100-XL UPLC System (eksigent) to determine the concentration of the exemplary test compound. […] The precipitated samples were centrifuged at 6,100 g for 30 min at 4° C. Following centrifugation, an aliquot of each supernatant was transferred into a clean sample vial and diluted with two volumes of aqueous mobile phase (0.2% formic acid in water). Samples were injected onto a reverse phase analytical column (YMC Triart C18; 2.0×50 mm; 1.9 μm; YMC CO) and eluted with a gradient of 0.1 or 0.2% formic acid in Acetonitrile. Test compound and internal standard were monitored by a multiple reaction monitoring (MRM) experiment using Analyst software (v1.6.2, Applied Biosystems SCIEX). Quantitation was conducted using MultiQuant software (v2.1, Applied Biosystems SCIEX) and the resulting calibration curve was fitted with a linear or quadratic regression and 1/x weighting.
IV and PO PK parameters were calculated from the concentration-time data using Phoenix WinNonlin software (v6.4, Certara, Princeton, N.J.) by noncompartmental analysis. Area under the concentration-time curve (AUClast) was estimated using a log-linear trapezoidal method, from the dosing time to the last measurable concentration.

[5] = biological target: T4, recombinant mouse PREP (rmPREP) (Mus musculus, UniProt Q9QUR6); test: PREP enzymatic activity assay; assay type: biochemical; conditions: Z-Gly-Pro-AMC substrate
T4 construct: purchased R&S system (so in the source)
T4 sequence (Q9QUR6 whole entry): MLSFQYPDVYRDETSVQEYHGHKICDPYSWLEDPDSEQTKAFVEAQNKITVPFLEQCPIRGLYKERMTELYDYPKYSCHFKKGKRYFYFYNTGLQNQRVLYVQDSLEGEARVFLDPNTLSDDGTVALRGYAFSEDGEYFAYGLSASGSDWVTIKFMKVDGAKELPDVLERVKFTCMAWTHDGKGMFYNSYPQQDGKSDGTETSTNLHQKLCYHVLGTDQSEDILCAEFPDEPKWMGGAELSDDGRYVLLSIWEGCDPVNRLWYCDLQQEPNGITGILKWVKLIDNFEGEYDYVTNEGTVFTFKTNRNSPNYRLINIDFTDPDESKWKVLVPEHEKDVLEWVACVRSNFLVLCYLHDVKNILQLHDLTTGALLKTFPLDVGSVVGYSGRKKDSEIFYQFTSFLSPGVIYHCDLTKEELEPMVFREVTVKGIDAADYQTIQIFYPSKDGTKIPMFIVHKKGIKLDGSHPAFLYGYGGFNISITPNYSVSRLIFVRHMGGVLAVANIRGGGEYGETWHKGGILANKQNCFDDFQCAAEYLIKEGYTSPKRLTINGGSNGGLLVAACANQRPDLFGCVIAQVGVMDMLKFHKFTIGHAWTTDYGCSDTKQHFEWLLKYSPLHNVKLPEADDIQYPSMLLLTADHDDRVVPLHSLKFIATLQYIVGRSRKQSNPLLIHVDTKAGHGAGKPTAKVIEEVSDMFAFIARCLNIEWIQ
Experimental: 7-Amino-4-Methylcoumarin (AMC) release was detected by measuring fluorescence at Ex/Em 380/460 nm using a Multifunction Microplate Reader (Synergy 4, Biotek). All measurements were carried out in triplicate.

[6] = biological target: T5, mouse plasma DPPIV (Mus musculus, UniProt P28843); test: DPPIV enzymatic activity in mouse plasma; assay type: biochemical; conditions: C57BL/6 mouse plasma; H-Gly-Pro-AMC substrate
T5 construct: from tissue; host or cells: mouse plasma (C57BL/6, EDTA)
T5 sequence (P28843 37-760 limits assumed): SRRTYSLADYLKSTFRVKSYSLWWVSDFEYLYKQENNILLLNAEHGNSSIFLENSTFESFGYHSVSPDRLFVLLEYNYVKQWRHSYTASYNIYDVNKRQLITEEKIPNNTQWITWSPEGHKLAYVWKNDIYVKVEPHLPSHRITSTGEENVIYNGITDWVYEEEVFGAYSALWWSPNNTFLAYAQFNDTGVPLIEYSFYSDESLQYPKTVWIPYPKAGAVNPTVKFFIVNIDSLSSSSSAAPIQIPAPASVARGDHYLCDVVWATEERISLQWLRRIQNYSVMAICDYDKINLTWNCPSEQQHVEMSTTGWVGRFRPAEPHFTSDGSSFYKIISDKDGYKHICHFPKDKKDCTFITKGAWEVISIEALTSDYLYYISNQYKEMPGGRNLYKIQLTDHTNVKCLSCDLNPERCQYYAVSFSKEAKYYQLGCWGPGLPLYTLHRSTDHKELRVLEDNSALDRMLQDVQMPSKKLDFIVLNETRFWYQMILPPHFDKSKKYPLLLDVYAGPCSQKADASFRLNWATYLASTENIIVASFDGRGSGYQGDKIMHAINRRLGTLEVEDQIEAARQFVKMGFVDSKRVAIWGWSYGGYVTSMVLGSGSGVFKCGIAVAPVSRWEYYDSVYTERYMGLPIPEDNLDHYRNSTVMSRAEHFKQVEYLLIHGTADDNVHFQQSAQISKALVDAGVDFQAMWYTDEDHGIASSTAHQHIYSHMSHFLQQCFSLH
Experimental: Approximately 500 μL of whole blood from one C57BL/6 mouse was harvested into BD Microtainer® tubes (K2) EDTA (#365974, Becton Dickinson and Co.) via terminal cardiac puncture. The blood sample was immediately centrifuged at approximately 9000 g at 4° C. for 5 minutes. Plasma was separated and stored at −80° C. in aliquots of 300 μL. To assay baseline DPPIV enzymatic exopeptidase activity, 5 μL of thawed, mouse plasma was diluted (1:5) in buffer (100 mM Tris-HCl, 400 mM NaCl, 50 mM salicylic acid, 1 mM EDTA, pH 7.5) and mixed with 35 µL of the same buffer before being pre-incubated with different concentrations of 10 μL of test compounds or DMSO vehicle for 15 minutes at 37° C. in 96-well black plates (Nunc, #237108). After pre-incubation, 50 μL of 200 μM dipeptide substrate H-Gly-Pro-AMC (Bachem, #L-1225) was added to the mixture. The assay was performed for 1 hour at 37° C. 7-Amino-4-Methylcoumarin (AMC) release was detected measuring fluorescence at an excitation wavelength of 360 nm and an emission wavelength of 460 nm using a Multifunction Microplate Reader (Synergy 4, Biotek). All measurements were carried out at least in duplicate.

[7] = test system: a variety of cancers; conditions: Phase II, combination with standard cytotoxic chemotherapy; cited from earlier work
[8] = standing in pH 7.8; cyclization; cited from earlier work

## N#CC1CC(F)(F)CN1C(=O)CNC(=O)c1ccnc2ccccc12 (stereo not drawn) [Ref. Comp., reference compound]
[1]
  rmFAPα (% exo inh @ 1 μM): +++ (+++ refers to > 50% inhibition at 1 μM test compound)
[2]
  rhFAPα (% exo inh @ 1 μM): +++ (+++ refers to > 50% inhibition at 1 μM test compound)
[3]
  IC50: > 10 µM
[4]; PO 10 mg/kg vs IV 2 mg/kg
  F (bioavailability): 39.7%
[4]; oral (PO) 10 mg/kg single dose, plasma
  AUClast: 1120 ng·h/mL
[5]
  IC50: > 10 µM
[6]
  IC50: > 10 µM

## CC(C)[C@H](N)C(=O)N1CCC[C@H]1B(O)O [Val-boroPro]
[7]
  clinical efficacy endpoints: endpoints for efficacy were not met
[8]
  stability of protease inhibitory activity: rapidly loses protease inhibitory activity
